Laboratory results reported in patent US9573956B2, “Compounds as dual inhibitors of phosphodiesterases and histone deacetylases” (FUNDACIÓN PARA LA INVESTIGACIÓN MÉDICA APLICADA, priority 2013, dated 2017).
Where two headings read alike, the source gives them in different places.

How the values were obtained:
Assay type in all cases: biochemical
PDE9A isoform b = target: T1, PDE9A isoform b (Homo sapiens, UniProt O76083); test: PDE enzyme activity assay (HTRF cGMP), PDE9A; conditions: recombinant enzyme; read-out: PDE9A inhibition (IC50)
T1 construct: they are full-length with N-terminal GST tag; GST (N); purchased BPS Biosciences 60090; host or cells: baculovirus infected Sf9 cells

HDAC1 = HDAC1 (Homo sapiens, UniProt Q13547); test: HDAC enzyme activity assay (fluorogenic substrate), HDAC1
PDE5A = target: T2, PDE5A (Homo sapiens, UniProt O76074); test: PDE enzyme activity assay (HTRF cGMP), PDE5A
T2 construct: they are full-length with N-terminal GST tag; GST (N); purchased BPS Biosciences 60050; host or cells: baculovirus infected Sf9 cells

HDAC2 = target: T3, HDAC2 (Homo sapiens, UniProt Q92769); test: HDAC enzyme activity assay (fluorogenic substrate), HDAC2
T3 construct: NM_001527; Cat. #50002) is full-length with C-terminal his tag; His (C); purchased BPS Biosciences 50002; host or cells: baculovirus infected Sf9 cells

HDAC6 = target: T4, HDAC6 (Homo sapiens, UniProt Q9UBN7); test: HDAC enzyme activity assay (fluorogenic substrate), HDAC6
T4 construct: BC069243; Cat. #50006) is full-length with N-terminal GST tag; GST (N); purchased BPS Biosciences 50006; host or cells: baculovirus infected Sf9 cells
T4 sequence (Q9UBN7 1-1215): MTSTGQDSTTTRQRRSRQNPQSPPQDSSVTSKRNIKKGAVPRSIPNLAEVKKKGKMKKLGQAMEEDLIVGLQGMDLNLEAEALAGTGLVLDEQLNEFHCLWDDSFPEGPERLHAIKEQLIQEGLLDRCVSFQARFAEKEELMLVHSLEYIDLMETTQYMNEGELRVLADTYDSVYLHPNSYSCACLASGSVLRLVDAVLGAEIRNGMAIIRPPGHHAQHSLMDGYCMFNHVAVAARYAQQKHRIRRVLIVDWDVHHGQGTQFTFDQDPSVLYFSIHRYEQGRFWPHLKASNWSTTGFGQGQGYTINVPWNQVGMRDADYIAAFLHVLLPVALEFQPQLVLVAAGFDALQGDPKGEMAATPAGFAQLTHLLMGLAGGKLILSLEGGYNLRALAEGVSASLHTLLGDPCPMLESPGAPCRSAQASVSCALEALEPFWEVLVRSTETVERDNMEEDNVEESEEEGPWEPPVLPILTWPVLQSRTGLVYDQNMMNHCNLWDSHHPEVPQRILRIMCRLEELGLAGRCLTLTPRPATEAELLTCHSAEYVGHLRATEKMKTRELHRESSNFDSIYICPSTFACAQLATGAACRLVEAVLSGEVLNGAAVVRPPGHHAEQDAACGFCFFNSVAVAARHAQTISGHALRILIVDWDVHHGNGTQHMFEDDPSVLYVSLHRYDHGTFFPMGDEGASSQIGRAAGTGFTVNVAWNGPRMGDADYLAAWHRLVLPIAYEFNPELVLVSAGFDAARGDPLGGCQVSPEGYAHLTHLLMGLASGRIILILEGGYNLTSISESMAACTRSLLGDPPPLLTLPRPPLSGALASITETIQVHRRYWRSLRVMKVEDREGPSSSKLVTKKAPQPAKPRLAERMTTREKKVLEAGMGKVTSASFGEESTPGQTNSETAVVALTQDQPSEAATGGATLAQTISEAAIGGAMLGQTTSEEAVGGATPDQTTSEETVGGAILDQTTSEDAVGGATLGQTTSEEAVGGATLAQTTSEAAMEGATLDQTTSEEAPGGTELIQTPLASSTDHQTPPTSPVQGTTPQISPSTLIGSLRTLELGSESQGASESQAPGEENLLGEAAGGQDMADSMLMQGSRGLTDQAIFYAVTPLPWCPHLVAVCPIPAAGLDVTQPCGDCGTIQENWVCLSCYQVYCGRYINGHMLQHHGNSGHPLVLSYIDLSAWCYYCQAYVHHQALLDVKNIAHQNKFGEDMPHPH

[1] = recombinant enzyme, read-out: HDAC1 inhibition (IC50)
[2] = recombinant enzyme, read-out: PDE5A1 inhibition (IC50)
[3] = recombinant enzyme, read-out: HDAC2 inhibition (IC50)
[4] = recombinant enzyme, read-out: HDAC6 inhibition (IC50)

Chain of HDAC1 (Q13547 whole entry): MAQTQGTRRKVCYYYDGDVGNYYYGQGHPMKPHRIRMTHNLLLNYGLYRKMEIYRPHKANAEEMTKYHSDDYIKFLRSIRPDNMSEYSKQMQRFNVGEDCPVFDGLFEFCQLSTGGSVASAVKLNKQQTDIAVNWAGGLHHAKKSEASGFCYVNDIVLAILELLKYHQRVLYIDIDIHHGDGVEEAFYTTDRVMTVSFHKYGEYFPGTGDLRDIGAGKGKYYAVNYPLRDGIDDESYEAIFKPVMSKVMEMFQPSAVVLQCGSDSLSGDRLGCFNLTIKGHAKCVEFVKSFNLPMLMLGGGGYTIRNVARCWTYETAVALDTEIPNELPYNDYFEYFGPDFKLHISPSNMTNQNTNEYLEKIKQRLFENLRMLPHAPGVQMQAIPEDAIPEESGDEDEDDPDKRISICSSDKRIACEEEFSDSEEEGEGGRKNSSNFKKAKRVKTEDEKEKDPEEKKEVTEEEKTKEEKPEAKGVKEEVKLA
T1 sequence (O76083 1-533 isoform O76083-2): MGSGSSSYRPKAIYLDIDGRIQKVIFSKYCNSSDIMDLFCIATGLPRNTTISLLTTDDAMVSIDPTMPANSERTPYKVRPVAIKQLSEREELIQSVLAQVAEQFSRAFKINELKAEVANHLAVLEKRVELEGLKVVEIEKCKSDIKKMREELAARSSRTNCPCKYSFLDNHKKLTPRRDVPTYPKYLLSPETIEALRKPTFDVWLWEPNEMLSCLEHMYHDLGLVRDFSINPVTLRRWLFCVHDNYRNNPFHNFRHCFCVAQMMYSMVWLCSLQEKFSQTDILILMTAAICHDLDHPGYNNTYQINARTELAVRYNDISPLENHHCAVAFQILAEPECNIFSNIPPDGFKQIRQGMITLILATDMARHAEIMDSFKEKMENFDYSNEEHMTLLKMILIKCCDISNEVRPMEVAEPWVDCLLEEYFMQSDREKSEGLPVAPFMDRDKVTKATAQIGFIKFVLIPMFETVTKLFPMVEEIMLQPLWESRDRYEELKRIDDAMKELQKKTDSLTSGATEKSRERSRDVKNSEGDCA
T3 sequence (Q92769 whole entry): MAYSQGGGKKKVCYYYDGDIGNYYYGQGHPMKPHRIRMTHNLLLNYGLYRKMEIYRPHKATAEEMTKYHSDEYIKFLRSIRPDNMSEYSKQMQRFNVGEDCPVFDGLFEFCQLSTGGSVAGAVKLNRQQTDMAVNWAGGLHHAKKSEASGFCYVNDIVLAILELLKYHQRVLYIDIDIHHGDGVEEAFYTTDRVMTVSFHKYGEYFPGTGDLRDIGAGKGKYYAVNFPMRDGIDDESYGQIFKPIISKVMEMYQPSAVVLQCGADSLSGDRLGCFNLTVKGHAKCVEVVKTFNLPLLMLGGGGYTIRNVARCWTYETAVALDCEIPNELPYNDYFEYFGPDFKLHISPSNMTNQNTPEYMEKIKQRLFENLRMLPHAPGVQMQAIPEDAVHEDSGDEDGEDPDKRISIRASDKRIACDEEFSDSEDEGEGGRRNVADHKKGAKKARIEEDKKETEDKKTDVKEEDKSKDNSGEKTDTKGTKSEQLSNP

Compound	IC50 (PDE9A isoform b) [nM]	IC50 (HDAC1; [1]) [nM]	IC50 (PDE5A; [2]) [nM]	IC50 (HDAC2; [3]) [nM]	IC50 (HDAC6; [4]) [nM]	IC50 (PDE5A; comparative example, read-out: PDE5A1 IC50) [nM]	IC50 (HDAC1; comparative examples, inactive, read-out: HDAC1 IC50) [nM]	IC50 (HDAC2; comparative examples, inactive, read-out: HDAC2 IC50) [nM]	IC50 (HDAC6; comparative examples, inactive, read-out: HDAC6 IC50) [nM]
CC(c1nc2c(cnn2C2CCOCC2)c(=O)[nH]1)N1CC(Oc2ccc(N3CCC(C(=O)NO)CC3)cc2)C1 (stereo not shown) [Example 3-05]	10 to 1000	> 10000	–	–	–	–	–	–	–
CC(c1nc2c(cnn2C2CCOCC2)c(=O)[nH]1)N1CC(Oc2ccc(-c3ccc(C(=O)NO)cc3)cc2)C1 (stereo not shown) [Example 3-03, 4-[4-[1-[1-(4-Oxo-1-tetrahydropyran-4-yl-5H-pyrazolo[3,4-d]pyrimidin-6-yl)ethyl]azetidin-3-yl]oxyphenyl]benzene carbohydroxamic acid]	10 to 1000	1000 to 10000	> 10000	–	–	–	–	–	–
C[C@@H]1CN(Cc2cnc(N3CCC(C(=O)NO)CC3)nc2)C[C@H]1c1nc2c(cnn2C2CCOCC2)c(=O)[nH]1 (racemic) [Example 3-08]	10 to 1000	1000 to 10000	–	–	–	–	–	–	–
CCCc1nc(C)c2c(=O)[nH]c(-c3cc(CC4CC(C(=O)N(C)OC)C4)ccc3OCC)nn12 (stereo not shown) [Comparative Example 2-02, 3-[[4-ethoxy-3-(5-methyl-4-oxo-7-propyl-3H-imidazo[5,1-f][1,2,4]triazin-2-yl)phenyl]methyl]-N-methoxy-N-methylcyclobutanecarboxamide, reference compound]	–	–	–	–	–	< 10	> 20000	> 20000	> 20000
CCCc1nn(C)c2c(=O)[nH]c(-c3cc(N4CCC(C(=O)NO)CC4)ccc3OCC)nc12 [Example 1-35, 1-[4-ethoxy-3-(1-methyl-7-oxo-3-propyl-6H-pyrazolo[4,3-d]pyrimidin-5-yl)phenyl]piperidine-4-carbohydroxamic acid]	–	1000 to 10000	10 to 1000	> 10000	1000 to 10000	–	–	–	–
CCCc1nn(C)c2c(=O)[nH]c(-c3cc(C4CC(C(=O)NO)C4)ccc3OCC)nc12 (stereo not shown) [Example 1-85, 3-[4-ethoxy-3-(1-methyl-7-oxo-3-propyl-6H-pyrazolo[4,3-d]pyrimidin-5-yl)phenyl]cyclobutanecarbohydroxamic acid]	–	1000 to 10000	10 to 1000	1000 to 10000	10 to 1000	–	–	–	–
CCCc1nn(C)c2c(=O)[nH]c(-c3cc(C4=CCC(C(=O)NO)CC4)ccc3OCC)nc12 (stereo not shown) [Example 1-38, 4-[4-ethoxy-3-(1-methyl-7-oxo-3-propyl-6H-pyrazolo[4,3-d]pyrimidin-5-yl)phenyl]cyclohex-3-ene-1-carbohydroxamic acid]	–	1000 to 10000	10 to 1000	> 10000	10 to 1000	–	–	–	–
CCCc1nn(C)c2c(=O)[nH]c(-c3cc(CC4CCN(C(=O)NO)CC4)ccc3OCC)nc12 [Example 1-49, 4-[[4-ethoxy-3-(1-methyl-7-oxo-3-propyl-6H-pyrazolo[4,3-d]pyrimidin-5-yl)phenyl]methyl]piperidine-1-carbohydroxamic acid]	–	> 10000	10 to 1000	> 10000	1000 to 10000	–	–	–	–
CCCc1nn(C)c2c(=O)[nH]c(-c3cc(Cc4ccc(/C=C/C(=O)NO)cc4)ccc3OCC)nc12 [Example 1-59]	–	1000 to 10000	10 to 1000	> 10000	1000 to 10000	–	–	–	–
COc1ccc(C(=O)Nc2c(Cl)cncc2Cl)cc1OC1CCCC1 [Piclamilast, reference compound]	> 10000	–	1000 to 10000	–	–	–	–	–	–
CCCc1nn(C)c2c(=O)[nH]c(-c3cc(Cc4ccc(C(=O)NO)cc4F)ccc3OCC)nc12 [Example 1-68]	–	1000 to 10000	10 to 1000	> 10000	10 to 1000	–	–	–	–
CCCc1nn(C)c2c(=O)[nH]c(-c3cc(Cc4ccc(C(=O)NO)cc4OC)ccc3OCC)nc12 [Example 1-60]	–	> 10000	10 to 1000	> 10000	> 10000	–	–	–	–
CCCc1nn(C)c2c(=O)[nH]c(-c3cc(NCC4CCN(c5ncc(C(=O)NO)cn5)CC4)ccc3OCC)nc12 [Example 1-23]	–	10 to 1000	10 to 1000	10 to 1000	10 to 1000	–	–	–	–
CCCc1nn(C)c2c(=O)[nH]c(-c3cc(CC4CCN(c5ccc(C(=O)NO)cn5)CC4)ccc3OCC)nc12 [Example 1-39]	–	1000 to 10000	10 to 1000	1000 to 10000	10 to 1000	–	–	–	–
CCCc1nn(C)c2c(=O)[nH]c(-c3cc(-c4ccc(CC(=O)NO)cc4)ccc3OCC)nc12 [Example 1-34]	–	> 10000	10 to 1000	> 10000	10 to 1000	–	–	–	–
CCCc1nn(C)c2c(=O)[nH]c(-c3cc(CC4CC(C(=O)NO)C4)ccc3OCC)nc12 (stereo not shown) [Example 1-63, 3-[[4-ethoxy-3-(1-methyl-7-oxo-3-propyl-6H-pyrazolo[4,3-d]pyrimidin-5 yl)phenyl]methyl]cyclobutanecarbohydroxamic acid]	–	10 to 1000	10 to 1000	1000 to 10000	10 to 1000	–	–	–	–

Further lines, results first:

IC50 (PDE9A isoform b) [nM]	IC50 (HDAC1; [1]) [nM]	IC50 (PDE5A; [2]) [nM]	IC50 (HDAC2; [3]) [nM]	IC50 (HDAC6; [4]) [nM]	IC50 (PDE5A; comparative example, read-out: PDE5A1 IC50) [nM]	IC50 (HDAC1; comparative examples, inactive, read-out: HDAC1 IC50) [nM]	IC50 (HDAC2; comparative examples, inactive, read-out: HDAC2 IC50) [nM]	IC50 (HDAC6; comparative examples, inactive, read-out: HDAC6 IC50) [nM]	Compound
< 10	10 to 1000	–	–	–	–	–	–	–	CC(c1nc2c(cnn2C2CCOCC2)c(=O)[nH]1)N1CC(Oc2ccc(/C=C/C(=O)NO)cc2)C1 (stereo not shown) [Example 3-06]
> 10000	< 10	< 10	–	–	–	–	–	–	CCCc1nc(C)c2c(=O)[nH]c(-c3cc(S(=O)(=O)N4CCN(c5ncc(C(=O)NO)cn5)CC4)ccc3OCC)nn12 [Example 2-05]
10 to 1000	10 to 1000	1000 to 10000	–	–	–	–	–	–	CC1CN(CC2CCN(c3ncc(C(=O)NO)cn3)CC2)CC1c1nc2c(cnn2C2CCOCC2)c(=O)[nH]1 (racemic) [Example 3-02, 2-(4-((3-(4,5-Dihydro-1-(tetrahydro-2H-pyran-4-yl)-4-oxo-1H-pyrazolo[3,4-d]pyrimidin-6-yl)-4-methylpyrrolidin-1-yl)methyl)piperidin-1-yl)-N-hydroxypyrimidine-5-carboxamide]
–	10 to 1000	10 to 1000	1000 to 10000	1000 to 10000	–	–	–	–	CCCc1nn(C)c2c(=O)[nH]c(-c3cc(N4CCC5(CCN(c6ncc(C(=O)NO)cn6)CC5)C4)ccc3OCC)nc12 [Example 1-69, 2-[2-[4-ethoxy-3-(1-methyl-7-oxo-3-propyl-6H-pyrazolo[4,3-d]pyrimidin-5-yl)phenyl]-2,8-diazaspiro[4.5]decan-8-yl]pyrimidine-5-carbohydroxamic acid]
10 to 1000	10 to 1000	–	–	–	–	–	–	–	CC(c1nc2c(cnn2C2CCOCC2)c(=O)[nH]1)N1CC(OC2CCN(c3ncc(C(=O)NO)cn3)CC2)C1 (stereo not shown) [Example 3-07]
–	10 to 1000	10 to 1000	1000 to 10000	10 to 1000	–	–	–	–	CCCc1nn(C)c2c(=O)[nH]c(-c3cc(Oc4ccc(C(=O)NO)cc4)ccc3OCC)nc12 [Example 1-37, 4-[4-ethoxy-3-(1-methyl-7-oxo-3-propyl-6H-pyrazolo[4,3-d]pyrimidin-5-yl)phenoxy]benzenecarbohydroxamic acid]
–	10 to 1000	10 to 1000	1000 to 10000	1000 to 10000	–	–	–	–	CCCc1nn(C)c2c(=O)[nH]c(-c3cc(N4CCC(CCC(=O)NO)CC4)ccc3OCC)nc12 [Example 1-54]
–	10 to 1000	10 to 1000	> 10000	10 to 1000	–	–	–	–	CCCc1nn(C)c2c(=O)[nH]c(-c3cc(CC4CCC(C(=O)NO)CC4)ccc3OCC)nc12 (stereo not shown) [Example 1-28, 4-[[4-ethoxy-3-(1-methyl-7-oxo-3-propyl-6H-pyrazolo[4,3-d]pyrimidin-5-yl)phenyl]methyl]cyclohexanecarbohydroxamic acid]
< 10	10 to 1000	–	–	–	–	–	–	–	C[C@@H]1CN(Cc2ncc(-c3ccc(C(=O)NO)cc3)cn2)C[C@H]1c1nc2c(cnn2C2CCOCC2)c(=O)[nH]1 (racemic) [Example 3-04]
